# Laboratory results from paper PMC8161026, “Synthesis and Anticancer Activity Evaluation of 5-[2-Chloro-3-(4-nitrophenyl)-2-propenylidene]-4-thiazolidinones” (Molecules, 2021).
# Assays:
# MDA-MB-231/ATCC = assay: NCI DTP 60 cell line screen, SRB; conditions: for GI50 / CC50: Homo sapiens, MDA-MB-231, 48 h; for CC50: read-out: LC50; for TGI: MDA-MB-231/ATCC (Breast Cancer), 48 h, SRB
# M14 = assay: NCI DTP 60 cell line screen, SRB; conditions: for GI50 / CC50: Homo sapiens, M14, 48 h; for CC50: read-out: LC50; for TGI: M14 (Melanoma), 48 h, SRB
# MDA-MB-435 = assay: NCI DTP 60 cell line screen, SRB; conditions: for GI50 / CC50: Homo sapiens, MDA-MB-435, 48 h; for CC50: read-out: LC50; for TGI: MDA-MB-435 (Breast Cancer), 48 h, SRB
# OVCAR-3 = assay: NCI DTP 60 cell line screen, SRB; conditions: for GI50 / CC50: Homo sapiens, OVCAR-3, 48 h; for CC50: read-out: LC50; for TGI: OVCAR-3 (Ovarian Cancer), 48 h, SRB
# NCI-H460 = assay: cells; conditions: Homo sapiens, NCI-H460, 48 h; for CC50: read-out: LC50
# [1] = tested on: MDA-MB-231 (breast cancer); assay: MTT cell viability assay; type: cell-based; conditions: Homo sapiens; MDA-MB-231, MTT, 24 h
# Experimental: (§1) In the second stage of the research, Ciminalum-thiazolidinone hybrids were investigated for antitumor activity on the lines of gastric cancer (AGS), human colon cancer (DLD-1), and breast cancers (MCF-7 and MDA-MB-231). The study was performed in the MTT assay according to the method described previously. The studied cancer line was sensitive to the action of the studied compounds that inhibited its growth in micromolar ranges of GI50. The hit compounds that inhibited the growth of all four cancer lines with the lowest GI50 values were [5-[2-chloro-3-(4-nitrophenyl)prop-2-enylidene]-rhodanines 2c, 2d, 2h, and 2i (Table 4).
# [2] = tested on: DLD-1 (human colon cancer); assay: MTT cell viability assay; type: cell-based; conditions: DLD-1, MTT, 24 h
# Experimental: as §1
# MCF-7 (breast cancer) = assay: MTT cell viability assay; type: cell-based; conditions: Homo sapiens, MCF7; MCF-7, MTT, 24 h
# Experimental: as §1
# AGS (gastric cancer) = assay: MTT cell viability assay; type: cell-based; conditions: Homo sapiens, 24 h
# Experimental: as §1
# A498 = assay: NCI DTP 60 cell line screen, SRB
# OVCAR-8 = assay: NCI DTP 60 cell line screen, SRB; conditions: for GI50 / CC50: Homo sapiens, OVCAR-8, 48 h; for CC50: read-out: LC50; for TGI: OVCAR-8 (Ovarian Cancer), 48 h, SRB
# CCRF-CEM = assay: NCI DTP 60 cell line screen, SRB; conditions: 48 h
# SW-620 = assay: cells; conditions: Homo sapiens, SW-620, 48 h; for CC50: read-out: LC50
# PC-3 = assay: cells; conditions: Homo sapiens, PC-3, 48 h; for CC50: read-out: LC50
# ACHN = assay: NCI DTP 60 cell line screen, SRB; conditions: 48 h; for TGI: ACHN (Renal Cancer), SRB; for GI50 / CC50: Homo sapiens, ACHN; for CC50: read-out: LC50
# HL-60(TB) = assay: cells; conditions: Homo sapiens, HL-60, 48 h; for CC50: read-out: LC50
# SF-295 = assay: NCI DTP 60 cell line screen, SRB; conditions: for GI50 / CC50: Homo sapiens, SF-295, 48 h; for CC50: read-out: LC50; for TGI: SF-295 (CNS Cancer), 48 h, SRB
# SN12C = assay: cells; conditions: Homo sapiens, 48 h; for CC50: read-out: LC50
# HCT-116 = assay: cells; conditions: Homo sapiens, HCT-116, 48 h; for CC50: read-out: LC50
# NCI-322M = assay: NCI DTP 60 cell line screen, SRB; conditions: 48 h; for GI50 / CC50: Homo sapiens, NCI-322M; for CC50: read-out: LC50; for TGI: NCI-322M (Non-Small Cell Lung Cancer), SRB
# A549/ATCC = assay: cells; conditions: Homo sapiens, A549, 48 h; for CC50: read-out: LC50
# UO-31 = assay: NCI DTP 60 cell line screen, SRB; conditions: for GI50 / CC50: Homo sapiens, UO-31, 48 h; for CC50: read-out: LC50; for TGI: UO-31 (Renal Cancer), 48 h, SRB
# HOP-62 = HOP-62 (Non-Small Cell Lung Cancer), 48 h, SRB
# MCF-7 = assay: NCI DTP 60 cell line screen, SRB; conditions: for GI50 / CC50: Homo sapiens, MCF7, 48 h; for CC50: read-out: LC50; for TGI: MCF-7 (Breast Cancer), 48 h, SRB
# SK-MEL-28 = SK-MEL-28 (Melanoma), 48 h, SRB
smiles,measurement,setting,value
"O=C1/C(=C/C(Cl)=C/c2ccc([N+](=O)[O-])cc2)SC(=S)N1/N=C\C(Cl)=C\c1ccc([N+](=O)[O-])cc1 [Compound 2c, 5-[(Z,2Z)-2-Chloro-3-(4-nitrophenyl)-2-propenylidene]-3-[(Z,2Z)-2-chloro-3-(4-nitrophenyl)-2-propenylideneamino]-2-thioxo-4-thiazolidinone]",GI50,MDA-MB-231/ATCC,10 µM
same,CC50,MDA-MB-231/ATCC,> 100 µM
same,TGI,MDA-MB-231/ATCC,35.4 µM
same,GI50,M14,16.2 µM
same,CC50,M14,78.5 µM
same,TGI,M14,35.7 µM
same,GI50,MDA-MB-435,20.3 µM
same,CC50,MDA-MB-435,86.3 µM
same,TGI,MDA-MB-435,41.9 µM
same,GI50,OVCAR-3,0.821 µM
same,CC50,OVCAR-3,41.1 µM
same,TGI,OVCAR-3,12.7 µM
same,GI50,NCI-H460,15 µM
same,CC50,NCI-H460,69.5 µM
same,GI50,[1],1.59 µM
same,GI50,[2],6.34 µM
same,GI50,MCF-7 (breast cancer),3.6 µM
same,GI50,AGS (gastric cancer),4.43 µM
same,TGI,"A498; A498 (Renal Cancer), 48 h, SRB",29.6 µM
same,GI50,"A498; Homo sapiens, A498, 48 h",13 µM
same,CC50,"A498; Homo sapiens, A498, 48 h, read-out: LC50",67.3 µM
same,GI50,OVCAR-8,1.98 µM
same,CC50,OVCAR-8,8.38 µM
same,TGI,OVCAR-8,4.08 µM
same,TGI,"CCRF-CEM; CCRF-CEM (Leukemia), SRB",35.3 µM
same,GI50,"CCRF-CEM; Homo sapiens, CCRF-CEM",4.42 µM
same,CC50,"CCRF-CEM; Homo sapiens, CCRF-CEM, read-out: LC50",> 100 µM
same,GI50,SW-620,7.24 µM
same,CC50,SW-620,> 100 µM
same,GI50,PC-3,8.1 µM
same,CC50,PC-3,> 100 µM
same,TGI,ACHN,29.7 µM
same,GI50,ACHN,15.6 µM
same,CC50,ACHN,56.4 µM
same,GI50,HL-60(TB),5.32 µM
same,CC50,HL-60(TB),87.2 µM
same,GI50,SF-295,18 µM
same,CC50,SF-295,77.1 µM
same,TGI,SF-295,37.3 µM
same,GI50,SN12C,29 µM
same,CC50,SN12C,> 100 µM
same,GI50,HCT-116,2.73 µM
same,CC50,HCT-116,23.3 µM
same,GI50,NCI-322M,87.6 µM
same,CC50,NCI-322M,> 100 µM
same,TGI,NCI-322M,> 100 µM
same,GI50,A549/ATCC,18.9 µM
same,CC50,A549/ATCC,96.1 µM
same,GI50,UO-31,17.5 µM
same,CC50,UO-31,59.1 µM
same,TGI,UO-31,32.2 µM
same,TGI,HOP-62,39.7 µM
same,GI50,MCF-7,4.08 µM
same,CC50,MCF-7,83.7 µM
same,TGI,MCF-7,19.8 µM
"O=C1/C(=C/C(Cl)=C/c2ccc([N+](=O)[O-])cc2)SC(=S)N1c1ccc(O)cc1 [Compound 2f, 5-[(Z,2Z)-2-Chloro-3-(4-nitrophenyl)-2-propenylidene]-3-(4-hydroxyphenyl)-2-thioxo-4-thiazolidinone]",GI50,MDA-MB-231/ATCC,2.18 µM
same,CC50,MDA-MB-231/ATCC,92.1 µM
same,TGI,MDA-MB-231/ATCC,12.2 µM
same,GI50,M14,1.9 µM
same,CC50,M14,7.32 µM
same,TGI,M14,3.73 µM
same,GI50,MDA-MB-435,3.5 µM
same,CC50,MDA-MB-435,> 100 µM
same,TGI,MDA-MB-435,7.71 µM
same,GI50,OVCAR-3,0.977 µM
same,CC50,OVCAR-3,> 100 µM
same,TGI,OVCAR-3,41.8 µM
same,GI50,NCI-H460,0.754 µM
same,CC50,NCI-H460,> 100 µM
same,TGI,SK-MEL-28,47.7 µM
same,GI50,OVCAR-8,1.14 µM
same,CC50,OVCAR-8,> 100 µM
same,TGI,OVCAR-8,22.9 µM
same,GI50,SW-620,0.037 µM
same,CC50,SW-620,> 100 µM
same,GI50,PC-3,2.29 µM
same,CC50,PC-3,> 100 µM
same,TGI,ACHN,3.51 µM
same,GI50,ACHN,1.7 µM
same,CC50,ACHN,7.27 µM
same,GI50,HL-60(TB),0.485 µM
same,CC50,HL-60(TB),> 100 µM
same,GI50,SF-295,2.26 µM
same,CC50,SF-295,> 100 µM
same,TGI,SF-295,13.8 µM
same,GI50,SN12C,1.98 µM
same,CC50,SN12C,> 100 µM
same,GI50,HCT-116,1.27 µM
same,CC50,HCT-116,6.92 µM
same,GI50,NCI-322M,2.49 µM
same,CC50,NCI-322M,> 100 µM
same,TGI,NCI-322M,9.02 µM
same,GI50,A549/ATCC,2.25 µM
same,CC50,A549/ATCC,> 100 µM
same,GI50,UO-31,2.08 µM
same,CC50,UO-31,> 100 µM
same,TGI,UO-31,3.98 µM
same,TGI,HOP-62,5.22 µM
same,GI50,MCF-7,0.401 µM
same,CC50,MCF-7,> 100 µM
same,TGI,MCF-7,28.0 µM
